Reference: patent US11178873B2, “Cyclic N-carboxamide compounds useful as herbicides” (FMC CORPORATION, priority 2015, dated 2021)

Tests used:
Format in all cases: in vivo
[1] = test system: barnyardgrass (Echinochloa crus-galli); assay: Test A postemergence, barnyardgrass; settings: 0 to 100 scale, 0 no effect, 100 complete control
Method in brief: (§1)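 Preemergence treatment was a directed soil spray; postemergence plants were 2 to 10 cm tall at the one- to two-leaf stage. Compounds were formulated in solvent with surfactant and grown in loam/sand in the greenhouse. Injury was scored visually against untreated controls after ~10 d, on a 0 (no effect) to 100 (complete control) scale.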

corn (Zea mays) = assay: Test A postemergence, corn; settings: 0 to 100 scale, 0 no effect, 100 complete control
Method in brief: as §1

[2] = test system: pigweed (Amaranthus retroflexus); assay: Test A postemergence, pigweed; settings: 0 to 100 scale, 0 no effect, 100 complete control
Method in brief: as §1

[3] = test system: blackgrass (Alopecurus myosuroides); assay: Test A postemergence, blackgrass; settings: 0 to 100 scale, 0 no effect, 100 complete control
Method in brief: as §1

[4] = test system: pigweed (Amaranthus retroflexus); assay: Test A preemergence, pigweed; settings: 0 to 100 scale, 0 no effect, 100 complete control
Method in brief: as §1

[5] = test system: barnyardgrass (Echinochloa crus-galli); assay: Test A preemergence, barnyardgrass; settings: 0 to 100 scale, 0 no effect, 100 complete control
Method in brief: as §1

[6] = test system: sedge, umbrella (small-flower umbrella sedge, Cyperus difformis); assay: Test B flooded paddy test, sedge, umbrella; settings: Flood, scale 0 to 100 (0 no effect, 100 complete control), 13 to 15 d
Method in brief: (§2)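 Plants at the 2-leaf stage were flooded to 3 cm above soil, and test compounds were applied directly into the paddy water, which was held at that depth throughout. After 13 to 15 d in a greenhouse, injury was rated visually against untreated controls on a 0–100 scale (0 no effect, 100 complete control).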

[7] = test system: ryegrass, Italian (Italian ryegrass, Lolium multiflorum); assay: Test A preemergence, ryegrass, Italian; settings: 0 to 100 scale, 0 no effect, 100 complete control
Method in brief: as §1

[8] = test system: foxtail, giant (giant foxtail, Setaria faberii); assay: Test A postemergence, foxtail, giant; settings: 0 to 100 scale, 0 no effect, 100 complete control
Method in brief: as §1

[9] = test system: ryegrass, Italian (Italian ryegrass, Lolium multiflorum); assay: Test A postemergence, ryegrass, Italian; settings: 0 to 100 scale, 0 no effect, 100 complete control
Method in brief: as §1

[10] = test system: barnyardgrass (Echinochloa crus-galli); assay: Test B flooded paddy test, barnyardgrass; settings: Flood, scale 0 to 100 (0 no effect, 100 complete control), 13 to 15 d
Method in brief: as §2

[11] = test system: ragweed (common ragweed, Ambrosia elatior); assay: Test A postemergence, ragweed; settings: 0 to 100 scale, 0 no effect, 100 complete control
Method in brief: as §1

kochia (Kochia scoparia) [12] = assay: Test A preemergence, kochia; settings: 0 to 100 scale, 0 no effect, 100 complete control
Method in brief: as §1

kochia (Kochia scoparia) [13] = assay: Test A postemergence, kochia; settings: 0 to 100 scale, 0 no effect, 100 complete control
Method in brief: as §1

[14] = test system: foxtail, giant (giant foxtail, Setaria faberii); assay: Test A preemergence, foxtail, giant; settings: 0 to 100 scale, 0 no effect, 100 complete control
Method in brief: as §1

[15] = test system: ragweed (common ragweed, Ambrosia elatior); assay: Test A preemergence, ragweed; settings: 0 to 100 scale, 0 no effect, 100 complete control
Method in brief: as §1

[16] = test system: ducksalad (Heteranthera limosa); assay: Test B flooded paddy test, ducksalad; settings: Flood, scale 0 to 100 (0 no effect, 100 complete control), 13 to 15 d
Method in brief: as §2

rice (Oryza sativa) = assay: Test B flooded paddy test, rice; settings: Flood, scale 0 to 100 (0 no effect, 100 complete control), 13 to 15 d
Method in brief: as §2

[17] = test system: wheat (Triticum aestivum); assay: Test A postemergence, wheat; settings: 0 to 100 scale, 0 no effect, 100 complete control
Method in brief: as §1

[18] = test system: galium (catchweed bedstraw, Galium aparine); assay: Test A postemergence, galium; settings: 0 to 100 scale, 0 no effect, 100 complete control
Method in brief: as §1

O=C1NCC(c2ccc(F)c(F)c2)N1C(=O)Nc1ccccc1 (stereo not drawn) [Compound 7]
0: Plant response rating, Barnyardgrass ([1]; 125 g ai/ha) | Plant response rating, Barnyardgrass ([1]; 500 g ai/ha) | Plant response rating, Corn (corn (Zea mays); 125 g ai/ha) | Plant response rating, Corn (corn (Zea mays); 500 g ai/ha) | Plant response rating, Pigweed ([2]; 125 g ai/ha) | Plant response rating, Pigweed ([2]; 500 g ai/ha) | Plant response rating, Blackgrass ([3]; 125 g ai/ha) | Plant response rating, Blackgrass ([3]; 500 g ai/ha) | Plant response rating, Pigweed ([4]; 125 g ai/ha) | Plant response rating, Pigweed ([4]; 500 g ai/ha) | Plant response rating, Barnyardgrass ([5]; 125 g ai/ha) | Plant response rating, Barnyardgrass ([5]; 500 g ai/ha) | Plant response rating, Sedge, Umbrella ([6]; 1000 g ai/ha) | Plant response rating, Ryegrass, Italian ([7]; 125 g ai/ha) | Plant response rating, Ryegrass, Italian ([7]; 500 g ai/ha) | Plant response rating, Foxtail, Giant ([8]; 125 g ai/ha) | Plant response rating, Foxtail, Giant ([8]; 500 g ai/ha) | Plant response rating, Ryegrass, Italian ([9]; 125 g ai/ha) | Plant response rating, Ryegrass, Italian ([9]; 500 g ai/ha) | Plant response rating, Barnyardgrass ([10]; 1000 g ai/ha) | Plant response rating, Ragweed ([11]; 125 g ai/ha) | Plant response rating, Ragweed ([11]; 500 g ai/ha) | Plant response rating, Kochia (kochia (Kochia scoparia) [12]; 125 g ai/ha) | Plant response rating, Kochia (kochia (Kochia scoparia) [12]; 500 g ai/ha) | Plant response rating, Kochia (kochia (Kochia scoparia) [13]; 125 g ai/ha) | Plant response rating, Kochia (kochia (Kochia scoparia) [13]; 500 g ai/ha) | Plant response rating, Foxtail, Giant ([14]; 125 g ai/ha) | Plant response rating, Foxtail, Giant ([14]; 500 g ai/ha) | Plant response rating, Ragweed ([15]; 125 g ai/ha) | Plant response rating, Ragweed ([15]; 500 g ai/ha) | Plant response rating, Ducksalad ([16]; 1000 g ai/ha) | Plant response rating, Rice (rice (Oryza sativa); 1000 g ai/ha) | Plant response rating, Wheat ([17]; 125 g ai/ha) | Plant response rating, Wheat ([17]; 500 g ai/ha) | Plant response rating, Galium ([18]; 125 g ai/ha) | Plant response rating, Galium ([18]; 500 g ai/ha)

O=C1NCC(c2ccc(F)c(F)c2)N1C(=O)Nc1ccccc1F (stereo not drawn) [Compound 8]
0: Plant response rating, Barnyardgrass ([1]; 125 g ai/ha) | Plant response rating, Barnyardgrass ([1]; 500 g ai/ha) | Plant response rating, Corn (corn (Zea mays); 125 g ai/ha) | Plant response rating, Corn (corn (Zea mays); 500 g ai/ha) | Plant response rating, Pigweed ([2]; 125 g ai/ha) | Plant response rating, Pigweed ([2]; 500 g ai/ha) | Plant response rating, Blackgrass ([3]; 125 g ai/ha) | Plant response rating, Blackgrass ([3]; 500 g ai/ha) | Plant response rating, Pigweed ([4]; 125 g ai/ha) | Plant response rating, Pigweed ([4]; 500 g ai/ha) | Plant response rating, Barnyardgrass ([5]; 125 g ai/ha) | Plant response rating, Barnyardgrass ([5]; 500 g ai/ha) | Plant response rating, Sedge, Umbrella ([6]; 500 g ai/ha) | Plant response rating, Ryegrass, Italian ([7]; 125 g ai/ha) | Plant response rating, Ryegrass, Italian ([7]; 500 g ai/ha) | Plant response rating, Foxtail, Giant ([8]; 125 g ai/ha) | Plant response rating, Foxtail, Giant ([8]; 500 g ai/ha) | Plant response rating, Ryegrass, Italian ([9]; 125 g ai/ha) | Plant response rating, Ryegrass, Italian ([9]; 500 g ai/ha) | Plant response rating, Barnyardgrass ([10]; 500 g ai/ha) | Plant response rating, Ragweed ([11]; 125 g ai/ha) | Plant response rating, Ragweed ([11]; 500 g ai/ha) | Plant response rating, Kochia (kochia (Kochia scoparia) [12]; 125 g ai/ha) | Plant response rating, Kochia (kochia (Kochia scoparia) [12]; 500 g ai/ha) | Plant response rating, Kochia (kochia (Kochia scoparia) [13]; 125 g ai/ha) | Plant response rating, Kochia (kochia (Kochia scoparia) [13]; 500 g ai/ha) | Plant response rating, Foxtail, Giant ([14]; 125 g ai/ha) | Plant response rating, Foxtail, Giant ([14]; 500 g ai/ha) | Plant response rating, Ragweed ([15]; 125 g ai/ha) | Plant response rating, Ragweed ([15]; 500 g ai/ha) | Plant response rating, Rice (rice (Oryza sativa); 500 g ai/ha) | Plant response rating, Wheat ([17]; 125 g ai/ha) | Plant response rating, Wheat ([17]; 500 g ai/ha) | Plant response rating, Galium ([18]; 125 g ai/ha) | Plant response rating, Galium ([18]; 500 g ai/ha)
40: Plant response rating, Ducksalad ([16]; 500 g ai/ha)

O=C1NCC(c2ccc(F)c(F)c2)N1C(=O)Nc1ccccc1C(F)(F)F (stereo not drawn) [Compound 10]
0: Plant response rating, Barnyardgrass ([1]; 125 g ai/ha) | Plant response rating, Barnyardgrass ([1]; 500 g ai/ha) | Plant response rating, Corn (corn (Zea mays); 125 g ai/ha) | Plant response rating, Corn (corn (Zea mays); 500 g ai/ha) | Plant response rating, Pigweed ([2]; 125 g ai/ha) | Plant response rating, Pigweed ([2]; 500 g ai/ha) | Plant response rating, Blackgrass ([3]; 125 g ai/ha) | Plant response rating, Blackgrass ([3]; 500 g ai/ha) | Plant response rating, Pigweed ([4]; 125 g ai/ha) | Plant response rating, Pigweed ([4]; 500 g ai/ha) | Plant response rating, Barnyardgrass ([5]; 125 g ai/ha) | Plant response rating, Barnyardgrass ([5]; 500 g ai/ha) | Plant response rating, Sedge, Umbrella ([6]; 500 g ai/ha) | Plant response rating, Ryegrass, Italian ([7]; 125 g ai/ha) | Plant response rating, Ryegrass, Italian ([7]; 500 g ai/ha) | Plant response rating, Foxtail, Giant ([8]; 125 g ai/ha) | Plant response rating, Ryegrass, Italian ([9]; 125 g ai/ha) | Plant response rating, Ryegrass, Italian ([9]; 500 g ai/ha) | Plant response rating, Barnyardgrass ([10]; 500 g ai/ha) | Plant response rating, Ragweed ([11]; 125 g ai/ha) | Plant response rating, Ragweed ([11]; 500 g ai/ha) | Plant response rating, Kochia (kochia (Kochia scoparia) [12]; 125 g ai/ha) | Plant response rating, Kochia (kochia (Kochia scoparia) [12]; 500 g ai/ha) | Plant response rating, Kochia (kochia (Kochia scoparia) [13]; 125 g ai/ha) | Plant response rating, Kochia (kochia (Kochia scoparia) [13]; 500 g ai/ha) | Plant response rating, Ragweed ([15]; 125 g ai/ha) | Plant response rating, Ragweed ([15]; 500 g ai/ha) | Plant response rating, Ducksalad ([16]; 500 g ai/ha) | Plant response rating, Rice (rice (Oryza sativa); 500 g ai/ha) | Plant response rating, Wheat ([17]; 125 g ai/ha) | Plant response rating, Wheat ([17]; 500 g ai/ha) | Plant response rating, Galium ([18]; 125 g ai/ha) | Plant response rating, Galium ([18]; 500 g ai/ha)
40: Plant response rating, Foxtail, Giant ([8]; 500 g ai/ha)
60: Plant response rating, Foxtail, Giant ([14]; 500 g ai/ha)
20: Plant response rating, Foxtail, Giant ([14]; 125 g ai/ha)
